Data on three substances can be found in patent US7727950B2, “Methods and reagents for assaying protein kinase activity” (The University of Dundee, priority 2002, dated 2010).

Experiment [1] has as its system peptide LpSFAEPGC conjugated to bovine serum albumin. Kind of experiment: Immunoblot of phospho-specific antibody with peptide competition (FIG. 1). The conditions noted are these: competition studies. Format: binding. How it is done: Aliquots (10 ng or 100 ng) of the peptide LpSFAEPGC (SEQ ID NO: 17) conjugated to bovine serum albumin were spotted on to a nitrocellulose membrane and immunoblotted with the phospho-specific antibody raised against the phospho-peptide immunogen in the presence or absence of the peptides shown on the right. The prefix “p” before S denotes the serine-phosphorylated form of the peptide.
Antibodies that recognise the common seven residue phosphorylated motif (LpSFAEPG) (SEQ ID NO:7) contained within each of the three generic peptide substrates described under results, were raised against the peptide LpSFAEPGC (SEQ ID NO:17) (where pS represents phosphoserine). The C-terminal cysteine residue was added to enable coupling to keyhole limpet haemocyanin. The peptide-protein conjugate was injected into sheep at Diagnostic Scotland (Carluke, U.K.) and the anti-sera purified on protein G-Sepharose (Amersham Pharmacia Biotech) by Dr J. Leitch in this Unit. Antibodies were used at a concentration of 2 μg/ml for immunoblotting and 10-20 μg/ml for detection of phosphorylated peptides in the modified ELISA format. Rabbit anti-sheep antibodies conjugated to peroxidase were obtained from Pierce (Tattenhall, Cheshire, UK) and used at 1/10,000 dilution. […]

Experiment [2] deals with T1, CHK1 (Homo sapiens, UniProt O14757).
T1 construct: made in house; host or cells: Sf21 insect cells
T1 sequence (O14757 1-476): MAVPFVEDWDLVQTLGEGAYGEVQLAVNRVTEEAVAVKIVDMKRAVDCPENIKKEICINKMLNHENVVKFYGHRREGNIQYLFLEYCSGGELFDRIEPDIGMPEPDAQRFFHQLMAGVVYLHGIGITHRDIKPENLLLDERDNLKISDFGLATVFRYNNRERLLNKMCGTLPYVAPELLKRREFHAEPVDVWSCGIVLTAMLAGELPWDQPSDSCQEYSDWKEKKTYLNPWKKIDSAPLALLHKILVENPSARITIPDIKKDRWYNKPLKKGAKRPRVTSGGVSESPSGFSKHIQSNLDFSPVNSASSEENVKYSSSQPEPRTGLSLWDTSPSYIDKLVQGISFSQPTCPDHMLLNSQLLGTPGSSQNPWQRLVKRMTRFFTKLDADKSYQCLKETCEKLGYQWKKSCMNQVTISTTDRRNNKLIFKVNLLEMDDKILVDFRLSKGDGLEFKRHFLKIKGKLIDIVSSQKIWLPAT
Kind of experiment: Kinetic parameters for peptide phosphorylation, radioactive filter-binding assay. Type of experiment: biochemical. To be noted: Standard Substrate = KKKVSRSGLYRSPSMPENLNRPR
The source says:
(§1) Apart from the AMP-activated protein kinase (AMPK, a gift from Drs S. Hawley and D. G. Hardie), cGMP-dependent protein kinase (PKG, a generous gift from Drs Susan Lohmann and Ulrich Walter, University of Wurzburg, Germany) and the catalytic subunit of cyclic AMP-dependent protein kinase (PKA, a gift from Dr C. Smythe), which were isolated from rat liver, bovine lung and bovine heart, respectively, all other protein kinases were expressed as either GST-fusion or His-tagged proteins (by a person, a person, Dr A. Paterson or a person, in this Division). The expressed proteins all corresponded to the human sequences apart from the rat Rho-dependent protein kinase (ROCK-II) and rat mitogen-activated protein kinase (MAPK) activated kinase-1a (MAPKAP-K1a, also called RSK). GST-fusion proteins were purified on GSH-agarose (Amersham Pharmacia Biotech, Amersham, UK) and His-tagged proteins on Ni-NTA agarose (Qiagen) essentially according to the manufacturer's instructions. All the protein kinases used in this study are available from Upstate Biotechnology Inc. (Lake Placid, N.Y., USA), apart from the α-isoform of calmodulin-dependent protein kinase II (CaMKII), MAPKAP-K3 and PKG. […]
(§2) All protein kinase assays were linear with respect to time. […] All papers were subsequently washed a further three times in phosphoric acid, once in acetone, then dried and counted for radioactivity. […] The plates were then washed six times (five min per wash) in PBS, 0.1% Tween 20 and binding of the phospho-specific antibody detected by incubating the plates with peroxidase-conjugated anti-sheep antibodies (Pierce). […] Signals were quantitated on LAS-1000IR software (FujiFilm). […]

Experiment [3] addresses T2, CHK2 (Homo sapiens, UniProt O96017).
T2 construct: an additional His-tag at the extreme C-terminus, to aid purification of the full-length product; GST; His-tag (C); made in house; host or cells: E. coli
The experiment is described as above. Format: biochemical. The conditions noted are these: Standard Substrate = KKKVSRSGLYRSPSMPENLNRPR
Excerpt: as §1, with “RSK).” for “RSK). GST-fusion proteins were purified on GSH-agarose (Amersham Pharmacia Biotech, Amersham, UK) and His-tagged proteins on Ni-NTA agarose (Qiagen) essentially according to the manufacturer's instructions. All the protein kinases used in this study are available from Upstate Biotechnology Inc. (Lake Placid, N.Y., USA), apart from the α-isoform of calmodulin-dependent protein kinase II (CaMKII), MAPKAP-K3 and PKG.”
as §2

In experiment [4] the target is T3, PKCα (Homo sapiens, UniProt P17252).
T3 construct: purchased Calbiochem Novachem Corp; host or cells: Sf21 insect cells
The description is as above. Type of experiment: biochemical. The conditions noted are these: Standard Substrate = histone H1.
Excerpt: as §1, §2

In experiment [5] the target is T4, ROCKII (Rattus norvegicus, UniProt Q62868).
T4 construct: rat ROCKII[1-543]; made in house; host or cells: Sf21 insect cells
T4 sequence (Q62868 1-543): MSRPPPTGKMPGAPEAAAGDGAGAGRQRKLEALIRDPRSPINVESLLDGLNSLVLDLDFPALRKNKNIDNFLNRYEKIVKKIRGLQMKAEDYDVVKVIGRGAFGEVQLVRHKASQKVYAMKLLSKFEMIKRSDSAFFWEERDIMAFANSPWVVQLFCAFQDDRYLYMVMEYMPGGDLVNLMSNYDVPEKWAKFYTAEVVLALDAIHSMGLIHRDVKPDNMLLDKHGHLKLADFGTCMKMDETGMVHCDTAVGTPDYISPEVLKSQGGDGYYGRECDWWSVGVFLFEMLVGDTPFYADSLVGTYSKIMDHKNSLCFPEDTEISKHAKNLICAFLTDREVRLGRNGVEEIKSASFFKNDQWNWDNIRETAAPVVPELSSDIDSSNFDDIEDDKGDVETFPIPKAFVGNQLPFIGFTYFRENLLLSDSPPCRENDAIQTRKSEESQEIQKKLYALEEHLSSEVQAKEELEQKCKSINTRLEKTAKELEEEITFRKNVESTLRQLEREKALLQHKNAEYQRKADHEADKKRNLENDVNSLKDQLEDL
Described as above. The conditions noted are these: Standard Substrate = KEAKEKRQEQIAKRRRLSSLRASTSKSGGSQK
Format: biochemical.
Excerpt: as §1, §2

Square brackets hold non-standard residues; d marks the D form. Ends that are not written are not given here. pS = N[C@@H](COP(=O)(O)O)C(=O)O A value given as a limit tells only on which side of the number the result lay.

In general, Km refers to the substrate concentration at which the rate is half of its maximum.

T2 sequence (O96017 whole entry): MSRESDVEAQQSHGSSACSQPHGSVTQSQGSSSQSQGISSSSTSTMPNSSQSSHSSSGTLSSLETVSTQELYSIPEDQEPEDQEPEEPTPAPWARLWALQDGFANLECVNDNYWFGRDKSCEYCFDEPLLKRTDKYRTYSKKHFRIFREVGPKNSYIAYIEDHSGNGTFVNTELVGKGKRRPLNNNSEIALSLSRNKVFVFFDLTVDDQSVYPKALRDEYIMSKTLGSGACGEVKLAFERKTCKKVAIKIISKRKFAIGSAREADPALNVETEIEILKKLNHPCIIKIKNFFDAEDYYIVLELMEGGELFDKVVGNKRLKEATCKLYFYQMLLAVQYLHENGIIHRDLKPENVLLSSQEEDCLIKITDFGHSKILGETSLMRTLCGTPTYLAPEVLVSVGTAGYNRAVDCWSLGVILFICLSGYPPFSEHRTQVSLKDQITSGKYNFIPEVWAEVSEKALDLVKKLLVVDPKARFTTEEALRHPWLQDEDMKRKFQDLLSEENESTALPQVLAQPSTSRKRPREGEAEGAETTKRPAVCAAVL

For the substance “LpSFAEPG (L[pS]FAEPG) [seven residue phospho-peptide antigen, pS is phosphoserine]”, the “neutralisation of the phosphopeptide antibody by pre-incubation with peptide” value in experiment [1] was “neutralised”.

With RARTLSFAEPG, the Michaelis constant (Km) in experiment [2] was 5 µM; in experiment [3], > 300 µM.

Consider RRRLSFAEPG, for which the figures for the Km in experiment [4] and in experiment [5] were > 500 µM and > 100 µM, respectively.
